From PubChem BioAssay (NCI)
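Cells were grown in 96-well plates and exposed to each compound for 48 hours at five concentrations; endpoints were interpolated linearly between bracketing concentrations, or set to the highest concentration if not reached. Definition used: TGI = concentration required for complete inhibition of growth.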

What was measured:
Assay in all cases: NCI tumour cell line growth inhibition, 48 h
NCI-H460 lung = tested on: NCI-H460 lung
NCI-H522 lung = tested on: NCI-H522 lung
OVCAR-4 ovarian = tested on: OVCAR-4 ovarian
PC-3 prostate = tested on: PC-3 prostate
OVCAR-3 ovarian = tested on: OVCAR-3 ovarian
MDA-MB-231 breast = tested on: MDA-MB-231 breast
UO-31 renal = tested on: UO-31 renal
SR leukemia = tested on: SR leukemia
LOX IMVI melanoma = tested on: LOX IMVI melanoma
U251 CNS = tested on: U251 CNS
NCI-H226 lung = tested on: NCI-H226 lung
RXF 393 renal = tested on: RXF 393 renal
NCI-H23 lung = tested on: NCI-H23 lung
HT29 colon = tested on: HT29 colon
786-0 renal = tested on: 786-0 renal
MCF7 breast = tested on: MCF7 breast
SK-OV-3 ovarian = tested on: SK-OV-3 ovarian
MOLT-4 leukemia = tested on: MOLT-4 leukemia
EKVX NSCLC = tested on: EKVX NSCLC
HCT-116 colon = tested on: HCT-116 colon
HOP-62 NSCLC = tested on: HOP-62 NSCLC
ACHN renal = tested on: ACHN renal
BT-549 breast = tested on: BT-549 breast
OVCAR-5 ovarian = tested on: OVCAR-5 ovarian
SW-620 colon = tested on: SW-620 colon
SF-539 CNS = tested on: SF-539 CNS
A498 renal = tested on: A498 renal
HCT-15 colon = tested on: HCT-15 colon
TK-10 renal = tested on: TK-10 renal
T-47D breast = tested on: T-47D breast
HOP-92 NSCLC = tested on: HOP-92 NSCLC
DU-145 prostate = tested on: DU-145 prostate
OVCAR-8 ovarian = tested on: OVCAR-8 ovarian
HCC-2998 colon = tested on: HCC-2998 colon
SK-MEL-28 melanoma = tested on: SK-MEL-28 melanoma
SF-268 CNS = tested on: SF-268 CNS
COLO 205 colon = tested on: COLO 205 colon
KM12 colon = tested on: KM12 colon
IGROV1 ovarian = tested on: IGROV1 ovarian
UACC-257 melanoma = tested on: UACC-257 melanoma
SK-MEL-5 melanoma = tested on: SK-MEL-5 melanoma
SNB-75 CNS = tested on: SNB-75 CNS
CAKI-1 renal = tested on: CAKI-1 renal
MDA-MB-435 = tested on: MDA-MB-435
A549 NSCLC = tested on: A549 NSCLC
RPMI-8226 leukemia = tested on: RPMI-8226 leukemia
SK-MEL-2 melanoma = tested on: SK-MEL-2 melanoma
NCI/ADR-RES ovarian = tested on: NCI/ADR-RES ovarian
SN12C renal = tested on: SN12C renal
MALME-3M melanoma = tested on: MALME-3M melanoma
HL-60(TB) leukemia = tested on: HL-60(TB) leukemia
HS 578T breast = tested on: HS 578T breast
UACC-62 melanoma = tested on: UACC-62 melanoma
MDA-N = tested on: MDA-N
SNB-19 CNS = tested on: SNB-19 CNS
SF-295 CNS = tested on: SF-295 CNS
M14 melanoma = tested on: M14 melanoma
K-562 leukemia = tested on: K-562 leukemia
CCRF-CEM leukemia = tested on: CCRF-CEM leukemia

C1=C\CCCCN2C[C@H]3CCCC/C=C\CCCCN4CC[C@@H]([C@H](CCCCCC/1)C4)[C@H](C3)C2 showed a TGI (NCI-H460 lung) of 3.68 µM, a TGI (NCI-H522 lung) of 3.33 µM and a TGI (OVCAR-4 ovarian) of 6.11 µM. The TGI (PC-3 prostate) was 14.5 µM, the TGI (OVCAR-3 ovarian) was 3.48 µM and the TGI (MDA-MB-231 breast) was 3.01 µM. For the same molecule, the TGI (UO-31 renal) was 3.16 µM, the TGI (SR leukemia) was greater than 19.8 µM and the TGI (LOX IMVI melanoma) was 3.22 µM. For the same molecule, the TGI (U251 CNS) was 3.41 µM, the TGI (NCI-H226 lung) was 37 µM and the TGI (RXF 393 renal) was 2.99 µM. For the same molecule, the TGI (NCI-H23 lung) was 18.9 µM, the TGI (HT29 colon) was 5.1 µM and the TGI (786-0 renal) was 3.16 µM. It also gave a TGI (MCF7 breast) of 4.5 µM, a TGI (SK-OV-3 ovarian) of 22.8 µM and a TGI (MOLT-4 leukemia) of 4.79 µM. It also gave a TGI (EKVX NSCLC) of 22.5 µM, a TGI (HCT-116 colon) of 4.41 µM and a TGI (HOP-62 NSCLC) of 5 µM. The TGI (ACHN renal) was 4.06 µM, the TGI (BT-549 breast) was 19.1 µM and the TGI (OVCAR-5 ovarian) was 21.4 µM. For the same molecule, the TGI (SW-620 colon) was 6.71 µM, the TGI (SF-539 CNS) was 3.9 µM and the TGI (A498 renal) was 17.4 µM. It also gave a TGI (HCT-15 colon) of 3.27 µM, a TGI (TK-10 renal) of 5.8 µM and a TGI (T-47D breast) of 4.6 µM. For the same molecule, the TGI (HOP-92 NSCLC) was greater than 20.2 µM, the TGI (DU-145 prostate) was 17.2 µM and the TGI (OVCAR-8 ovarian) was 7.74 µM. For the same molecule, the TGI (HCC-2998 colon) was 2.01 µM, the TGI (SK-MEL-28 melanoma) was 3.89 µM and the TGI (SF-268 CNS) was 5.74 µM. It also gave a TGI (COLO 205 colon) of 4.03 µM, a TGI (KM12 colon) of 4.03 µM and a TGI (IGROV1 ovarian) of 11.3 µM. For the same molecule, the TGI (UACC-257 melanoma) was 3.28 µM, the TGI (SK-MEL-5 melanoma) was 3.12 µM and the TGI (SNB-75 CNS) was 5.46 µM. For the same molecule, the TGI (CAKI-1 renal) was 5.6 µM, the TGI (MDA-MB-435) was 3.8 µM and the TGI (A549 NSCLC) was 6.95 µM. The TGI (RPMI-8226 leukemia) was 3.56 µM, the TGI (SK-MEL-2 melanoma) was 4.56 µM and the TGI (NCI/ADR-RES ovarian) was 9.89 µM. It also gave a TGI (SN12C renal) of 22.9 µM, a TGI (MALME-3M melanoma) of 3.56 µM and a TGI (HL-60(TB) leukemia) of 12.1 µM. For the same molecule, the TGI (HS 578T breast) was 4.34 µM, the TGI (UACC-62 melanoma) was 3.67 µM and the TGI (MDA-N) was 3.26 µM. The TGI (SNB-19 CNS) was 5.3 µM and the TGI (SF-295 CNS) was 3.53 µM.
With C=CC[C@H]1[C@H](O[Si](C)(C)C(C)(C)C)C=CC(=O)[C@@H]1CC(=O)N(Cc1ccccc1)Cc1ccccc1 the TGI (NCI-H460 lung) was greater than 100 µM, the TGI (NCI-H522 lung) was greater than 100 µM and the TGI (OVCAR-4 ovarian) was greater than 100 µM. The TGI (PC-3 prostate) was greater than 100 µM, the TGI (M14 melanoma) was greater than 100 µM and the TGI (OVCAR-3 ovarian) was 67 µM. The TGI (MDA-MB-231 breast) was 41.2 µM, the TGI (UO-31 renal) was 41.2 µM and the TGI (SR leukemia) was greater than 100 µM. It also gave a TGI (LOX IMVI melanoma) of 26.9 µM, a TGI (U251 CNS) greater than 100 µM and a TGI (NCI-H226 lung) of 46.7 µM. It also gave a TGI (RXF 393 renal) of 27.4 µM, a TGI (NCI-H23 lung) of 30.5 µM and a TGI (HT29 colon) of 29.2 µM. For the same molecule, the TGI (786-0 renal) was 84.9 µM, the TGI (MCF7 breast) was greater than 100 µM and the TGI (SK-OV-3 ovarian) was greater than 100 µM. For the same molecule, the TGI (MOLT-4 leukemia) was greater than 100 µM, the TGI (EKVX NSCLC) was greater than 100 µM and the TGI (HCT-116 colon) was 54.5 µM. It also gave a TGI (HOP-62 NSCLC) greater than 100 µM, a TGI (K-562 leukemia) greater than 100 µM and a TGI (ACHN renal) greater than 100 µM. It also gave a TGI (BT-549 breast) of 51.6 µM, a TGI (OVCAR-5 ovarian) greater than 100 µM and a TGI (SW-620 colon) greater than 100 µM. It also gave a TGI (SF-539 CNS) greater than 100 µM, a TGI (A498 renal) greater than 100 µM and a TGI (HCT-15 colon) of 35.6 µM. It also gave a TGI (TK-10 renal) of 85.6 µM, a TGI (T-47D breast) of 44.2 µM and a TGI (HOP-92 NSCLC) of 8.51 µM. The TGI (DU-145 prostate) was greater than 100 µM, the TGI (OVCAR-8 ovarian) was greater than 100 µM and the TGI (HCC-2998 colon) was 73.6 µM. The TGI (SK-MEL-28 melanoma) was greater than 100 µM, the TGI (SF-268 CNS) was 93.4 µM and the TGI (COLO 205 colon) was 25.6 µM. The TGI (KM12 colon) was greater than 100 µM, the TGI (IGROV1 ovarian) was greater than 100 µM and the TGI (UACC-257 melanoma) was 65.8 µM. The TGI (SK-MEL-5 melanoma) was 20.7 µM, the TGI (CAKI-1 renal) was 90.2 µM and the TGI (CCRF-CEM leukemia) was greater than 100 µM. It also gave a TGI (MDA-MB-435) greater than 100 µM, a TGI (A549 NSCLC) greater than 100 µM and a TGI (RPMI-8226 leukemia) greater than 100 µM. The TGI (SK-MEL-2 melanoma) was 38.3 µM, the TGI (NCI/ADR-RES ovarian) was 80.6 µM and the TGI (SN12C renal) was 90.4 µM. For the same molecule, the TGI (HL-60(TB) leukemia) was 36.5 µM, the TGI (HS 578T breast) was greater than 100 µM and the TGI (UACC-62 melanoma) was greater than 100 µM. It also gave a TGI (MDA-N) greater than 100 µM, a TGI (SNB-19 CNS) greater than 100 µM and a TGI (SF-295 CNS) greater than 100 µM.
